# Laboratory results reported in patent US20060069155A1, “Method for reducing exacerbations associated with COPD” (priority 2000, published 2006).
# “Also recorded” adds a separate entry of the source.
# Columns and labels:
# [1] = tested on: COPD exacerbations in patients with COPD; experiment: Clinical Study A: placebo-controlled, double-blind 6-month study of Ariflo 15 mg BID in COPD patients; format: in vivo, human; settings: for Number of Patients Exacerbation-free / Estimated Percentage Exacerbation-Free (Exacerbation-free Survival Rate): 24 weeks, ITT, 15 mg BID; for Estimated Percentage Exacerbation-Free (Exacerbation-free Survival Rate): Kaplan-Meier estimate
# Text: (§1) Acute COPD exacerbations, defined as worsening of COPD symptoms that required changes in treatment including antimicrobial therapy, a short course of oral corticosteroids or other bronchodilator therapy. Exacerbations were categorized to three levels: • Level 1: self-managed by the patient at home by increasing usual medication for COPD. • Level 2: requiring additional treatment prescribed by a family or primary care physician or as a result of a hospital outpatient visit including a visit to the Emergency Room. • Level 3: requiring the patient to be admitted to the hospital for treatment. Clinical trials in COPD patients were carried out to investigate the efficacy of an 15 mg immediate release tablet, BID of Ariflo. […] In each of the studies, patients with COPD entered a 4-week placebo run-in period and were then randomized to receive Ariflo 15 mg twice daily or placebo in a ratio of 2 to 1. Patients were monitored following 1, 2 and 4 weeks of treatment and subsequently at 4-week intervals. Patients were permitted to receive concomitant salbutamol (prn) and/or short acting anticholinergic therapy at a stable dose during these studies. Pulmonary function measurements were performed at each visit (with the exception of Week 1). The St. George's Respiratory Questionnaire (SGRQ) was administered at Baseline, and Weeks 12 and 24 (or at the time of withdrawal). Routine compliance, vital sign, and laboratory assessments were performed at each visit. These studies included frequent ECG assessments and extensive monitoring of patients reporting gastrointestinal adverse experiences of potential clinical concern to address concerns about possible effects of SB 207499 on both cardiovascular and gastrointestinal body systems. 12-lead ECG assessments were conducted at screening, prior to dosing at Baseline, and prior to dosing at each visit during the double-blind treatment period. In addition, 12-lead ECGs were performed 3 hours after the administration of drug on the first and last day of dosing. In a subset of patients, 24-hour Holter ECG monitoring was conducted during Run-in and at Weeks 1 and 20. Orthostatic vital signs and faecal occult blood tests were determined for all patients in order to obtain a general incidence of abnormal assessments in this patient population. Orthostatic vital signs were determined at Screening, Baseline and the end of double-blind treatment. Faecal occult blood tests were performed between Screening and Baseline and between 20 weeks and the end of double-blind treatment (24 weeks).
# [2] = tested on: COPD exacerbations in patients with COPD; experiment: Clinical Study C: placebo-controlled, double-blind 6-month study of Ariflo 15 mg BID in COPD patients; format: in vivo, human; settings: for Number of Patients Exacerbation-free / Estimated Percentage Exacerbation-Free (Exacerbation-free Survival Rate): 24 weeks, ITT, 15 mg BID; for Estimated Percentage Exacerbation-Free (Exacerbation-free Survival Rate): Kaplan-Meier estimate
# Text: as §1
# [3] = tested on: COPD exacerbations in patients with COPD; experiment: Clinical Study B: placebo-controlled, double-blind study of Ariflo 15 mg BID in COPD patients; format: in vivo, human; settings: for Number of Patients Exacerbation-free / Estimated Percentage Exacerbation-Free (Exacerbation-free Survival Rate): 24 weeks, ITT, 15 mg BID; for Estimated Percentage Exacerbation-Free (Exacerbation-free Survival Rate): Kaplan-Meier estimate
# Text: as §1, with “studies. Study B included a 2-week, randomised, double-blind, run-out phase to examine the effects of discontinuation of treatment. Patients who received Ariflo during the initial 24 week period, were randomized (1:1 ratio) to Ariflo 15 mg BID or placebo for the run-out phase; patients who received placebo during the initial 24 weeks, continued on placebo during the run-out phase.” for “studies.”
# [4] = targeted for the treatment of multi-infarct dementia; 'may include'; cited from earlier work
# [5] = developed as an antidepressant; cited from earlier work
# [6] = 15 mg immediate release tablet BID
structure (smiles),measurement,setting,value
"COc1ccc([C@]2(C#N)CC[C@@H](C(=O)O)CC2)cc1OC1CCCC1 [SB207499, cis-4-cyano-4-[3-(cyclopentyloxy)-4-methoxyphenyl]cyclohexane-1-carboxylic acid]",estimated percentages of patients exacerbation-free compared to placebo,"[1]; 15 mg IR tablet BID, P=0.008",significantly greater
same,incidence of all categories of exacerbations and of more severe exacerbations (Levels 2 and 3) versus placebo,[1]; [6],lower incidence
same,reduction of the risk of an exacerbation requiring treatment by a physician or hospitalization,"[1]; 15 mg immediate release tablet BID, Kaplan-Meier estimates, P=0.001",45%
same,reduction of the risk of having an exacerbation relative to placebo,"[1]; 15 mg immediate release tablet BID, Kaplan-Meier estimates, P=0.002",39%
same,Number of Patients Exacerbation-free,"[1]; All Exacerbations, of 431 patients",336
same,Estimated Percentage Exacerbation-Free (Exacerbation-free Survival Rate),"[1]; All Exacerbations, placebo 62.4",74.0%
same,Number of Patients Exacerbation-free,[1]; Level 2 and 3 Exacerbations,364
same,Estimated Percentage Exacerbation-Free (Exacerbation-free Survival Rate),"[1]; Level 2 and 3 Exacerbations, placebo 69.7",81.7%
same,affect on exacerbations,[2]; 15 mg BID over 6 months,marginal
same,efficacy in treating COPD,[2]; 15 mg BID over 6 months,equivocal
same,Number of Patients Exacerbation-free,"[2]; All Exacerbations, of 474 patients",299
same,Estimated Percentage Exacerbation-Free (Exacerbation-free Survival Rate),"[2]; All Exacerbations, placebo 56.0",58.3%
same,Number of Patients Exacerbation-free,[2]; Level 2 and 3 Exacerbations,354
same,Estimated Percentage Exacerbation-Free (Exacerbation-free Survival Rate),"[2]; Level 2 and 3 Exacerbations, placebo 71.0",70.9%
same,estimated percentages of patients exacerbation-free compared to placebo,"[3]; 15 mg IR tablet BID, P=0.004",significantly greater
same,incidence of all categories of exacerbations and of more severe exacerbations (Levels 2 and 3) versus placebo,[3]; [6],lower incidence
same,Number of Patients Exacerbation-free,"[3]; All Exacerbations, of 469 patients",318
same,Estimated Percentage Exacerbation-Free (Exacerbation-free Survival Rate),"[3]; All Exacerbations, placebo 51.1",63.9%
same,Number of Patients Exacerbation-free,[3]; Level 2 and 3 Exacerbations,367
same,Estimated Percentage Exacerbation-Free (Exacerbation-free Survival Rate),"[3]; Level 2 and 3 Exacerbations, placebo 64.3",75.5%
same,reduction of the risk of an exacerbation requiring treatment by a physician or hospitalization (Levels 2 and 3),"[3]; over 26 weeks, P=0.004",32%
same,reduction of the risk of having an exacerbation relative to placebo,"[3]; over 26 weeks, P=0.005",30%
CCCCn1c(=O)c2c(ncn2CC(C)=O)n(CCCC)c1=O [denbufylline],side effects,[4],"pyrosis, nausea and emesis"
COc1ccc(C2CNC(=O)C2)cc1OC1CCCC1 (stereo not drawn) [rolipram],side effects in clinical studies,[5],"psychotropic activity; also recorded: gastrointestinal effects, e.g., pyrosis, nausea and emesis"
